Data on 7 molecules can be found in US8822517B2, “Arylosulfonamides for the treatment of CNS diseases” (Adamed SP. Z O.O., priority 2010, dated 2014).

The structures appear in SMILES notation.

The target of assay [1] is histaminergic H1 receptor (Homo sapiens, UniProt P35367). As to the kind of experiment: Binding assay H1 (h), [3H]pyrilamine, HEK-293 cells. Details: expressed in transfected cells; host or cells: HEK-293 cells. As to conditions: read-out: H1 [%]. On the procedure:
(§1) The specific ligand binding to the receptors is defined as the difference between the total binding and the nonspecific binding determined in the presence of an excess of so unlabelled ligand.
(§2) The specific Ligand binding to the receptor is defined as the difference between total and non-specific binding determined in the presence of an excess of unlabelled ligand. The compounds were tested at a concentration of 1×10^−6 M, and scintillation counting was the method of detection of ligand binding.

For another assay, the target named is dopaminergic D3 receptor (Homo sapiens, UniProt P35462). As to the kind of experiment: Binding assay D3 (h), [3H]methyl-spiperone, CHO cells. As to conditions: read-out: D3 [%]. Further details: expressed in transfected cells; host or cells: CHO cells. In a few lines: (§3)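 Binding read by scintillation counting. Non-specific component defined by excess unlabelled ligand and removed from total counts. Compounds at 1×10^−6 M.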
Chain of dopaminergic D3 receptor (P35462 whole entry): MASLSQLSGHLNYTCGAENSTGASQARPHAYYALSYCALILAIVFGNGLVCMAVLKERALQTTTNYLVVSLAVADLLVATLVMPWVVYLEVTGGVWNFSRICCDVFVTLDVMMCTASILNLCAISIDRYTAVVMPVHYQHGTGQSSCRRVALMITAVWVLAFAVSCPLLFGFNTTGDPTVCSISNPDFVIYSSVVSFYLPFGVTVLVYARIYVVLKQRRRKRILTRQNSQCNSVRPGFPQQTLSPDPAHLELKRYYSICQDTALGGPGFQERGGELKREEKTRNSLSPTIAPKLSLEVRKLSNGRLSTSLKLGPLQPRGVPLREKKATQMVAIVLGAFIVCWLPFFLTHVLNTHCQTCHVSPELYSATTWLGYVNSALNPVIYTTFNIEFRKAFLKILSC

The target in a further assay is dopaminergic D2 receptor (Homo sapiens, UniProt P14416). As to the kind of experiment: Binding assay D2S (h), [3H]methyl-spiperone, HEK-293 cells. As to conditions: read-out: D2 [%]. Details: expressed in transfected cells; host or cells: HEK-293 cells. In a few lines: as §3
Chain of dopaminergic D2 receptor (P14416 1-414 isoform P14416-2): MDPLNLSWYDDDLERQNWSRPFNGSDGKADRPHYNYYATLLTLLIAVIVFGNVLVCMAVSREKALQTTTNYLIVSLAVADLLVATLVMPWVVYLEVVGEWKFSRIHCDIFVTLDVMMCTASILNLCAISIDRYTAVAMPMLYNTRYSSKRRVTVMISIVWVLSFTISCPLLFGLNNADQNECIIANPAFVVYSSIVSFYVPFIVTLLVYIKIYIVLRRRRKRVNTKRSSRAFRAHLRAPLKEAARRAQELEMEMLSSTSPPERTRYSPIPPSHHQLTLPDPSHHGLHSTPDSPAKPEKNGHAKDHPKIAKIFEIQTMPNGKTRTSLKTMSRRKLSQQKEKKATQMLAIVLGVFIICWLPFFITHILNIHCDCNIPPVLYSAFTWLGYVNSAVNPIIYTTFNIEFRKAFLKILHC
Assay [2] addresses serotoninergic 5-HT6 receptor (Homo sapiens, UniProt P50406). As to the kind of experiment: Binding assay 5-HT6 (h), [3H]LSD, CHO cells. Details: expressed in transfected cells; host or cells: CHO cells. To be noted: read-out: 5-HT6. In a few lines:
as §3

For assay [3], the target named is T1, serotoninergic 5-HT1A receptor (Homo sapiens, UniProt P08908).
T1 sequence (P08908 1-422): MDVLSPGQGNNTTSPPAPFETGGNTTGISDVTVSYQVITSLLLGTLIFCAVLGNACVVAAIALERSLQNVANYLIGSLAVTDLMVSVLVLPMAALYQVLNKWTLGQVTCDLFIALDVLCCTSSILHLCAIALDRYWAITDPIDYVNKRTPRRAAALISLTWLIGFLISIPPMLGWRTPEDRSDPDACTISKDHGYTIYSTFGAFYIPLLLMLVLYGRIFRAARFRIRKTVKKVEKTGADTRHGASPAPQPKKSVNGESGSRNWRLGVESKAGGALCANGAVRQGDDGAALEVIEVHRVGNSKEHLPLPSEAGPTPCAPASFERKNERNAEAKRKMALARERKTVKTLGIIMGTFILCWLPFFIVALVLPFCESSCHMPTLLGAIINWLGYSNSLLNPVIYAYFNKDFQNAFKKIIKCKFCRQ
As to the kind of experiment: Binding assay 5-HT1A (h), [3H]8-OH-DPAT, HEK-293 cells. To be noted: read-out: 5-HT1A. Details: expressed in transfected cells; host or cells: HEK-293 cells. In a few lines:
as §3

Another assay deals with T2, adrenergic α2C receptor (Homo sapiens, UniProt P18825).
T2 sequence (P18825 1-462): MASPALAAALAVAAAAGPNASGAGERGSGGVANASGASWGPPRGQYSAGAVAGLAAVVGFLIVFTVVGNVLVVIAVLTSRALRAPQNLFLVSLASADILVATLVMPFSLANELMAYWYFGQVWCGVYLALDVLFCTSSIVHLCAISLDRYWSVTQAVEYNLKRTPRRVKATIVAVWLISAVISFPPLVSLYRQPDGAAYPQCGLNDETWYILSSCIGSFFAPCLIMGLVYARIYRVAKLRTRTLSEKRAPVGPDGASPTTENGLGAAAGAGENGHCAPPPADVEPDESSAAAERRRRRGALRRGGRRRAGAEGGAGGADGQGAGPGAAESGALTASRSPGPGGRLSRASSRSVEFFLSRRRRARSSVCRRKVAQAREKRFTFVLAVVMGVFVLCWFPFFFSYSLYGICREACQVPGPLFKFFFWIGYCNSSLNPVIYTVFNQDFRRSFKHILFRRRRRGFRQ
As to the kind of experiment: Binding assay α2C (h), [3H]RX 821002, CHO cells. To be noted: read-out: α2C [%]. Details: expressed in transfected cells; host or cells: CHO cells. As to the method:
as §1, §2

Assay [4] deals with T3, serotoninergic receptor 5-HT2C (Homo sapiens, UniProt P28335).
T3 construct: expressed in transfected cells; host or cells: HEK-293 cells
T3 sequence (P28335 33-458): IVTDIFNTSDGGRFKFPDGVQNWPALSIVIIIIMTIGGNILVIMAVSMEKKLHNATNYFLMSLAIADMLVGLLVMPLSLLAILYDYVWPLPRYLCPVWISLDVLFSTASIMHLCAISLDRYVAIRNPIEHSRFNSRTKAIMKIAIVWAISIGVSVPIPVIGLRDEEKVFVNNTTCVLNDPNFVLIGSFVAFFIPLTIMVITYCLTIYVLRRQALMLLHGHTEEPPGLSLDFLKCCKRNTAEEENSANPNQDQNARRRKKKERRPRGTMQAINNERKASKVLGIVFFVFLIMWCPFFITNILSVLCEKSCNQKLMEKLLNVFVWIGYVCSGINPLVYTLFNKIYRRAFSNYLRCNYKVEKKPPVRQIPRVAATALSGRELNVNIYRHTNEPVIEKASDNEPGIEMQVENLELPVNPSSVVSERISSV
As to the kind of experiment: Binding assay 5-HT2C (h), [3H]mesulergine, HEK-293 cells. As to conditions: read-out: 5-HT2C [%]. As to the method:
as §1, §2

Assay [5] concerns the target serotoninergic 5-HT7 receptor (Homo sapiens, UniProt P34969). As to the kind of experiment: Binding assay 5-HT7 (h), [3H]LSD, CHO cells. Details: expressed in transfected cells; host or cells: CHO cells. To be noted: read-out: 5-HT7. In a few lines:
as §3

In assay [6] the target is T4, serotonine transporter (SERT) receptor (Homo sapiens, UniProt P31645).
T4 construct: expressed in transfected cells; host or cells: CHO cells
T4 sequence (P31645 whole entry): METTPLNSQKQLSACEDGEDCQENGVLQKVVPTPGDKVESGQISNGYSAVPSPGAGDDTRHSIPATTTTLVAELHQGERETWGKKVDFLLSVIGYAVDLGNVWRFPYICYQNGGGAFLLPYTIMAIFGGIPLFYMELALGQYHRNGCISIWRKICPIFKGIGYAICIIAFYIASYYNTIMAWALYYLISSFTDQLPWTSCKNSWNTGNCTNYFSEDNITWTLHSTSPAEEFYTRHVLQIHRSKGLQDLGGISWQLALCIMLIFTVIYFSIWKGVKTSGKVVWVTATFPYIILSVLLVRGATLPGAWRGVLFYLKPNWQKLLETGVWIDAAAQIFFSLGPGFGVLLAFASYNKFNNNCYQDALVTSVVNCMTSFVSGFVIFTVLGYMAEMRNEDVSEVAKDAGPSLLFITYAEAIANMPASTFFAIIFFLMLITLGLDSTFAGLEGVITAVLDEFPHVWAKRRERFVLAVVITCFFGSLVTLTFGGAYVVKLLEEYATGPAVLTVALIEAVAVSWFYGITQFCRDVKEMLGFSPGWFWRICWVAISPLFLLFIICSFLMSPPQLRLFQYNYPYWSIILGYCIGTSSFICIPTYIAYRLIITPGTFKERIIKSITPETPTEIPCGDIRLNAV
As to the kind of experiment: Binding assay SERT (h), [3H]imipramine, CHO cells. To be noted: read-out: SERT [%]. In a few lines: as §3

In assay [7] the target is serotoninergic 5-HT2A receptor (Homo sapiens, UniProt P28223). As to the kind of experiment: Binding assay 5-HT2A (h), [3H]ketanserin, HEK-293 cells. Further details: expressed in transfected cells; host or cells: HEK-293 cells. As to conditions: read-out: 5-HT2A. In a few lines: as §3
Chain of serotoninergic 5-HT2A receptor (P28223 whole entry): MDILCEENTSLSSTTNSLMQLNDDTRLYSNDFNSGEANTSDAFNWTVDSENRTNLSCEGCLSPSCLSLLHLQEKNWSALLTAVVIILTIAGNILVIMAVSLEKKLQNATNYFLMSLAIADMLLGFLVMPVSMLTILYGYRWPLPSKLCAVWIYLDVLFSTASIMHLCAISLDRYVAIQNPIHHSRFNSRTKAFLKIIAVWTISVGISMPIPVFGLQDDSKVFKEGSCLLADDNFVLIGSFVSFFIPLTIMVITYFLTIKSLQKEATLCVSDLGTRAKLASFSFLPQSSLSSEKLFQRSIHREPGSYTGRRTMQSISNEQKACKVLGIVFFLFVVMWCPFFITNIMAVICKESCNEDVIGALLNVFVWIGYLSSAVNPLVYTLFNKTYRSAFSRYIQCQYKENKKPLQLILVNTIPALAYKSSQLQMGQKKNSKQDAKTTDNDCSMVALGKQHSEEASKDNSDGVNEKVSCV
The target of the next assay is T5, muscarinic M3 receptor (Homo sapiens, UniProt P20309).
T5 construct: expressed in transfected cells; host or cells: CHO cells
T5 sequence (P20309 whole entry): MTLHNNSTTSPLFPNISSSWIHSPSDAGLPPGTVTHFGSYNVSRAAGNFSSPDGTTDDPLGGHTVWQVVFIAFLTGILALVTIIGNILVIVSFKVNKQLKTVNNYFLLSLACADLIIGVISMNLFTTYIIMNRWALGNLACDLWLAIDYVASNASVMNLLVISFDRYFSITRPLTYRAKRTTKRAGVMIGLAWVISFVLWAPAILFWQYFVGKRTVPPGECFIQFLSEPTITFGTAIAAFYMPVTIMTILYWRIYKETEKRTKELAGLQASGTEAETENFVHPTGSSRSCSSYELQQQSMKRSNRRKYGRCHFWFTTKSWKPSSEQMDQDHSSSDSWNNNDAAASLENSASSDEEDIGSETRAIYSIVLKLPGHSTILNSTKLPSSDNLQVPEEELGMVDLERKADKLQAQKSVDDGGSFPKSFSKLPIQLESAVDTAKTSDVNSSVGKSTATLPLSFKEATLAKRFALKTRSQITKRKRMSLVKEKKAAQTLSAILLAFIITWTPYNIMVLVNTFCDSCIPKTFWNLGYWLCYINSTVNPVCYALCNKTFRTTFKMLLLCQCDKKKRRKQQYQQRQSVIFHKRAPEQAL
As to the kind of experiment: Binding assay M3 (h), [3H]4-DAMP, CHO cells. As to conditions: read-out: M3 [%]. On the procedure:
as §1, §2

The next assay has as its system adrenergic α1 receptor. As to the kind of experiment: Binding assay α1 (non-selective), [3H]prazosin, rat cerebral cortex. As to conditions: percent inhibition of control specific binding; compounds tested at 1×10^−6 M. In a few lines:
as §3

A further assay has as its system sigma σ receptor. As to the kind of experiment: Binding assay σ (non-selective), [3H]DTG, rat cerebral cortex. As to conditions: percent inhibition of control specific binding; compounds tested at 1×10^−6 M. As to the method:
as §1, §2

Chain of serotoninergic 5-HT7 receptor (P34969 whole entry): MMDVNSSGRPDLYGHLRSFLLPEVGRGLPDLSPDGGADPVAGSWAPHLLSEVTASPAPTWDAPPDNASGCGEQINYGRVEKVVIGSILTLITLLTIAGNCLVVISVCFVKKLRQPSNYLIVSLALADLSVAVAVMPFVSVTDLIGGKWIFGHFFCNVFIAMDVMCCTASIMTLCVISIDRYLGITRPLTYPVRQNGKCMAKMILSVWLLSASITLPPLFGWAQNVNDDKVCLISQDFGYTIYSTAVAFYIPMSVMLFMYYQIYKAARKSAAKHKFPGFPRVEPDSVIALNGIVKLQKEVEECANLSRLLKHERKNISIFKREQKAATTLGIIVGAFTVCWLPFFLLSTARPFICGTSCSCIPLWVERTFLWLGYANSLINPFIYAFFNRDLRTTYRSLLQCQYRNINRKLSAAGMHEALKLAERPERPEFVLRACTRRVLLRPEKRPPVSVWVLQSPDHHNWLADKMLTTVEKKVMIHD
Chain of histaminergic H1 receptor (P35367 whole entry): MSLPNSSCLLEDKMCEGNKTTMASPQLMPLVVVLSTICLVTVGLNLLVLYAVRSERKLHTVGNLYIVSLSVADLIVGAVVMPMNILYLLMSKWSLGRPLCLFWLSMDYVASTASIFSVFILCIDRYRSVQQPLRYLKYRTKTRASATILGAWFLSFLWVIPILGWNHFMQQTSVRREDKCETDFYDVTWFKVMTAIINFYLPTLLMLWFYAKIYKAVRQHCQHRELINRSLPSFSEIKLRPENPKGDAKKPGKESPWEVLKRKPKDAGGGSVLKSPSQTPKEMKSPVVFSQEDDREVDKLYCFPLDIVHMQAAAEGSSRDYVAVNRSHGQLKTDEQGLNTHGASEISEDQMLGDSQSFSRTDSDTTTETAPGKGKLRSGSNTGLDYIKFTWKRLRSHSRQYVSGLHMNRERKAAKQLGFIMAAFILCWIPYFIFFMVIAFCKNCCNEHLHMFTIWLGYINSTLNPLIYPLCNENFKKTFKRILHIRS
Chain of serotoninergic 5-HT6 receptor (P50406 whole entry): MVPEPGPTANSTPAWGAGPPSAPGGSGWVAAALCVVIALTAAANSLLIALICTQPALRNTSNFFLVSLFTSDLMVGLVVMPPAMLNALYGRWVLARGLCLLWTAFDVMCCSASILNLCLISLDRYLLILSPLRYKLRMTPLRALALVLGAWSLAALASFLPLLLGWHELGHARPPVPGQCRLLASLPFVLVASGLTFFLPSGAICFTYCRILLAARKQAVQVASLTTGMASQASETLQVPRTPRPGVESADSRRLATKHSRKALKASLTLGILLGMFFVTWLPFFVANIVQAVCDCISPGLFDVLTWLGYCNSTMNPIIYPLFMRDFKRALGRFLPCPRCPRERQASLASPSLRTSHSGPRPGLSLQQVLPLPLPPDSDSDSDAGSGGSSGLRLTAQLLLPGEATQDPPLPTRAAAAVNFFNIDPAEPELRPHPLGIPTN

For the molecule `O=c1[nH]c2cccc(N3CCN(CCCNS(=O)(=O)c4ccc(Cl)cc4)CC3)c2[nH]1` [Compound 425, 4-chloro-N-[3-[4-(2-oxo-1,3-dihydrobenzimidazol-4-yl)piperazin-1-yl]propyl]-benzenesulphonamide], the inhibition at 1 µM in [1] was found to be 6%; on dopaminergic D3 receptor, 104%; on dopaminergic D2 receptor, 91%; in assay [2], 5%; in assay [3], 98%; at adrenergic α2C receptor, 59%. The inhibition at 1 µM in assay [4] came to 24%; in assay [5], 95%; in assay [6], 10%; in assay [7] it was 25%; on muscarinic M3 receptor, 2%.

For `Cc1c(S(=O)(=O)NCCCN2CCN(c3nsc4ccccc34)CC2)sc2ccc(F)cc12` [Compound 66, N-[3-[4-(1,2-Benzothiazol-3-yl)piperazin-1-yl]propyl]-5-fluoro-3-methylbenzothiophene-2-sulphonamide], the inhibition at 1 µM in assay [1] was found to be 99%; at dopaminergic D3 receptor, 101%; on dopaminergic D2 receptor, 101%; in assay [2], 95%; in [3], 98%; on adrenergic α2C receptor, 103%. In addition, the inhibition at 1 µM in assay [4] was 86%; in assay [5], 101%; in [6] it was 93%; in assay [7] it was 101%; on muscarinic M3 receptor, 10%. The “α1 [%]” value with adrenergic α1 receptor is recorded as 93%. Also, the “σ [%]” value in the assay on sigma σ receptor was 61%.

On to `O=S(=O)(NCCCCN1CCC(c2noc3cc(F)ccc23)CC1)c1ccc(Cl)s1` [Compound 308, 5-Chloro-N-[4-[4-(6-fluoro-1,2-benzoxazol-3-yl)piperidin-1-yl]butyl]thiophene-2-sulphonamide], for which the inhibition at 1 µM in assay [1] turned out to be 92%; on dopaminergic D3 receptor it was 95%; on dopaminergic D2 receptor, 96%; in assay [2] it was 83%; in assay [3], 81%; at adrenergic α2C receptor, 96%. For the same molecule, the inhibition at 1 µM in assay [4] stood at 57%; in assay [5], 99%; in [6], 28%; in [7], 102%; at muscarinic M3 receptor it was 30%. Besides, in the assay with adrenergic α1 receptor, the “α1 [%]” value turned out to be 91%. The “σ [%]” value in the assay on sigma σ receptor is reported as 86%.

With `O=c1[nH]c2cccc(N3CCN(CCCCNS(=O)(=O)c4ccc5ccccc5c4)CC3)c2[nH]1` [Compound 419, N-[4-[4-(2-oxo-1,3-dihydrobenzimidazol-4-yl)piperazin-1-yl]butyl]naphthalene-2-sulphonamide], the inhibition at 1 µM in assay [1] was 12%; on dopaminergic D3 receptor, 97%; at dopaminergic D2 receptor, 93%; in assay [2], 12%; in assay [3], 98%; on adrenergic α2C receptor, 93%. Moreover, the inhibition at 1 µM in [4] is 7%; in assay [5] it was 86%; in assay [6] it was -21%; in assay [7] it was 52%; on muscarinic M3 receptor, -8%. For the same molecule, the “α1 [%]” value in the assay with adrenergic α1 receptor was determined as 86%. In addition, in the assay on sigma σ receptor, the “σ [%]” value is −14%.

For `O=S(=O)(NCCCN1CCN(c2nsc3ccccc23)CC1)c1ccc(F)c(Cl)c1` [Compound 64, N-[3-[4-(1,2-Benzothiazol-3-yl)piperazin-1-yl]propyl]-3-chloro-4-fluorobenzenesulphonamide], the inhibition at 1 µM in assay [1] was determined as 98%; at dopaminergic D3 receptor, 98%; on dopaminergic D2 receptor, 98%; in assay [2], 99%; in [3], 99%; at adrenergic α2C receptor it was 100%. Moreover, the inhibition at 1 µM turned out to be 99% in [5], 80% in assay [6], 101% in assay [7] and 7% on muscarinic M3 receptor. The “α1 [%]” value in the assay with adrenergic α1 receptor was determined as 93%. Also, in the assay on sigma σ receptor, the “σ [%]” value is listed as 54%.

Take `O=S(=O)(NCCCN1CCN(c2nsc3ccccc23)CC1)c1ccc(Cl)c(Cl)c1` [Compound 251, N-[3-[4-(1,2-Benzothiazol-3-yl)piperazin-1-yl]propyl]-3,4-dichlorobenzenesulphonamide]: the inhibition at 1 µM was 97% on dopaminergic D3 receptor; 97% at dopaminergic D2 receptor; 99% in [2]; 99% in assay [3]; 96% at adrenergic α2C receptor; 83% in assay [4]. Moreover, the inhibition at 1 µM in [5] worked out at 99%; in assay [6], 87%; in assay [7] it was 101%; on muscarinic M3 receptor, 8%. Besides, the “α1 [%]” value in the assay on adrenergic α1 receptor turned out to be 95%. The “σ [%]” value in the assay on sigma σ receptor was determined as 61%.

Regarding `O=S(=O)(NCCCN1CCC(c2noc3cc(F)ccc23)CC1)c1cc2ccc(Cl)cc2s1` [Compound 347, 6-Chloro-N-[3-[4-(6-fluoro-1,2-benzoxazol-3-yl)piperidin-1-yl]propyl]benzothiophene-2-sulphonamide], the inhibition at 1 µM in [1] came to 98%; at dopaminergic D3 receptor it was 103%; at dopaminergic D2 receptor, 103%; in assay [2] it was 99%; in [3], 92%; at adrenergic α2C receptor it was 110%. Moreover, the inhibition at 1 µM worked out at 99% in assay [4]; 100% in assay [5]; 33% in [6]; 101% in assay [7]; 12% at muscarinic M3 receptor.
